Among the data in ChEMBL document CHEMBL3734663, “Solid-phase synthesis and in vitro biological activity of a Thr4→Ser4 analog of daptomycin” (2015) are MIC values, retold here.

Type in all cases: functional
Assay [1] deals with Bacillus subtilis. The assay can be described thus: Antibacterial activity against Bacillus subtilis 1046 in presence of 100 mM Ca2+.
The subject of assay [2] is Bacillus subtilis. Nature of the assay: Antibacterial activity against Bacillus subtilis 1046 in presence of 5 mM Ca2+.
Assay [3] concerns Bacillus subtilis. Nature of the assay: Antibacterial activity against Bacillus subtilis 1046 in presence of 1.8 mM Ca2+.

In the case of `CCCCCCCCCC(=O)N[C@@H](Cc1c[nH]c2ccccc12)C(=O)N[C@@H](CC(N)=O)C(=O)N[C@@H](CC(=O)O)C(=O)N[C@H]1COC(=O)[C@H](Cc2ccc(O)cc2)NC(=O)[C@H](CCC(=O)O)NC(=O)[C@@H](CO)NC(=O)CNC(=O)[C@H](CC(=O)O)NC(=O)[C@@H](C)NC(=O)[C@H](CC(=O)O)NC(=O)[C@H](CCCN)NC(=O)CNC1=O`, the figures for the MIC in assay [1] and in assay [2] were 1.3 µg/mL and 35 µg/mL, respectively.

`CCCCCCCCCC(=O)N[C@@H](Cc1c[nH]c2ccccc12)C(=O)N[C@H](CC(N)=O)C(=O)N[C@@H](CC(=O)O)C(=O)N[C@@H]1C(=O)NCC(=O)N[C@@H](CCCN)C(=O)N[C@@H](CC(=O)O)C(=O)N[C@H](C)C(=O)N[C@@H](CC(=O)O)C(=O)NCC(=O)N[C@H](CO)C(=O)N[C@@H]([C@H](C)CC(=O)O)C(=O)N[C@@H](CC(=O)c2ccccc2N)C(=O)O[C@@H]1C`: the MIC (usually the lowest concentration that inhibits growth of the organism) in assay [1] amounted to 0.5 µg/mL; in assay [3] it was 1 µg/mL; in assay [2] it was 0.75 µg/mL.

As for `CCCCCCCCCC(=O)N[C@@H](Cc1c[nH]c2ccccc12)C(=O)N[C@@H](CC(N)=O)C(=O)N[C@@H](CC(=O)O)C(=O)N[C@H]1COC(=O)[C@H](Cc2c[nH]c3ccccc23)NC(=O)[C@H](CCC(=O)O)NC(=O)[C@@H](CO)NC(=O)CNC(=O)[C@H](CC(=O)O)NC(=O)[C@@H](C)NC(=O)[C@H](C)NC(=O)[C@H](CCCN)NC(=O)CNC1=O`, the MIC in assay [1], in assay [3] and in assay [2] was more than 100 µg/mL each time.

As for `CCCCCCCCCC(=O)N[C@@H](Cc1c[nH]c2ccccc12)C(=O)N[C@@H](CC(N)=O)C(=O)N[C@@H](CC(=O)O)C(=O)N[C@H]1COC(=O)[C@H](Cc2c[nH]c3ccccc23)NC(=O)[C@H](CCC(=O)O)NC(=O)[C@@H](CO)NC(=O)CNC(=O)[C@H](CC(=O)O)NC(=O)[C@@H](C)NC(=O)[C@H](CC(=O)O)NC(=O)[C@H](CCCN)NC(=O)CNC1=O`, the MIC in assay [1] is 1.5 µg/mL; in assay [3] it was 5 µg/mL; in assay [2] it was 1.5 µg/mL.

On to `CCCCCCCCCC(=O)N[C@@H](Cc1c[nH]c2ccccc12)C(=O)NC(CC(N)=O)C(=O)N[C@@H](CC(=O)O)C(=O)N[C@@H]1C(=O)NCC(=O)N[C@@H](CCCN)C(=O)N[C@@H](CC(=O)O)C(=O)N[C@H](C)C(=O)N[C@@H](CC(=O)O)C(=O)NCC(=O)N[C@H](CO)C(=O)N[C@@H](C(C)CC(=O)O)C(=O)N[C@@H](CC(=O)c2ccccc2N)C(=O)O[C@@H]1C` (single isomer, unassigned) [DAPTOMYCIN], for which the MIC worked out at 5 µg/mL in assay [1], 40 µg/mL in assay [3] and 5 µg/mL in assay [2].
